Experimental data taken from ChEMBL document CHEMBL1154355, “Identification of the bioactive constituent and its mechanisms of action in mediating the anti-inflammatory effects of black cohosh and related Cimicifuga species on human primary blood macrophages” (2009).
Activity calls are given as the source filed them. The calls are words filed in the database; no cut-off is given here.

Tests used:
PBMC [1] = experiment: Antiinflammatory activity in human PBMC assessed as inhibition of 10 ng/ml LPS-induced TNFalpha release at 5.1 uM pretreated 24 hrs before inducer-challenge measured 24 hrs after LPS addition by ELISA; assay type: functional
PBMC [2] = experiment: Antiinflammatory activity in human PBMC assessed as inhibition of 10 ng/ml LPS-induced TNFalpha release at 1.3 uM pretreated 24 hrs before inducer-challenge measured 24 hrs after LPS addition by ELISA; assay type: functional
PBMC [3] = experiment: Antiinflammatory activity in human PBMC assessed as inhibition of 1 ng/ml LPS-induced TNFalpha release at 140 uM pretreated 24 hrs before inducer-challenge measured 24 hrs after LPS addition by ELISA; assay type: functional
[4] = target: Mitogen-activated protein kinase; ERK1/ERK2 (Homo sapiens) (UniProt P27361+P28482); experiment: Inhibition of LPS-induced ERK1/2 phosphorylation in human PBMC at 140 uM pretreated 24 hrs before inducer-challenge measured 15 mins after LPS addition by Western blot; assay type: protein assay
Chain of Mitogen-activated protein kinase; ERK1/ERK2 (Homo sapiens) (P27361 whole entry, looked up): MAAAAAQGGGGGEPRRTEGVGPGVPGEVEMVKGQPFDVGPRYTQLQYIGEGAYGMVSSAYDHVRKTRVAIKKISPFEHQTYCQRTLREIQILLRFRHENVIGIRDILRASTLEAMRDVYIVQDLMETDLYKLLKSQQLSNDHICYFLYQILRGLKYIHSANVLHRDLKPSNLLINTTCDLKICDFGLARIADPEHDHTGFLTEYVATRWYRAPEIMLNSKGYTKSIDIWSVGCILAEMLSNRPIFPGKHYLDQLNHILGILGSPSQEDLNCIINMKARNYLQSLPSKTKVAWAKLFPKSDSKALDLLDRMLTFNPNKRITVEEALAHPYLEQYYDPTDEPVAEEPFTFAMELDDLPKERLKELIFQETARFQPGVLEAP
Chain of Mitogen-activated protein kinase; ERK1/ERK2 (Homo sapiens) (P28482 whole entry, looked up): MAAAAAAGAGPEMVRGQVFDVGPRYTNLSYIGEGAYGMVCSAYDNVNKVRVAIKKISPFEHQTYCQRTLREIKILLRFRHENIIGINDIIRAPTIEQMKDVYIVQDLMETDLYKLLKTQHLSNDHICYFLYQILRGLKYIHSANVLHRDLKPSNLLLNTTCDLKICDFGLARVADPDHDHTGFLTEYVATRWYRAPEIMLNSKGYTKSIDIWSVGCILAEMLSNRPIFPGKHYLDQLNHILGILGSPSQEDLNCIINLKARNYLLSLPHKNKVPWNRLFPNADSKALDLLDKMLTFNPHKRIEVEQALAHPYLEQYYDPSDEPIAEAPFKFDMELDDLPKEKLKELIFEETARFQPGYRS

PBMC [5] = experiment: Inhibition of LPS-induced NFkappaB p65 subunit translocation into nucleus in human PBMC at 140 uM pretreated 24 hrs before inducer-challenge measured 15 mins after LPS addition by Western blot; assay type: functional, cell-based
PBMC [6] = experiment: Antiinflammatory activity in human PBMC assessed as inhibition of 10 ng/ml LPS-induced TNFalpha release at 140 uM pretreated 24 hrs before inducer-challenge measured 24 hrs after LPS addition by ELISA; assay type: functional
[7] = target: MAP kinase p38 (Homo sapiens) (UniProt O15264+Q15759+Q16539+P53778); experiment: Inhibition of LPS-induced p38 MAPK phosphorylation in human PBMC at 140 uM pretreated 24 hrs before inducer-challenge measured 15 mins after LPS addition by Western blot; assay type: protein assay

Structure (SMILES) | inhibition (INH) (PBMC [1]) | inhibition (INH) (PBMC [2]) | inhibition (INH) (PBMC [3]) | inhibition [4] | inhibition (PBMC [5]) | inhibition (INH) (PBMC [6]) | inhibition [7]
C[C@@H]1C[C@H]2[C@@H]3CCC4=CC(=O)C=C[C@]4(C)[C@@]3(F)[C@@H](O)C[C@]2(C)[C@@]1(O)C(=O)CO [DEXAMETHASONE] | 25% | 32% |  |  |  |  | 
COc1ccc(/C=C/C(=O)OCC(=O)Cc2ccc(O)c(O)c2)cc1O [CIMIRACEMATE A] |  |  | 47% | Active | Active | 58% | inactive
